# Reference: patent publication US20200352912A1, “ANTIMICROBIAL COMPOSITIONS AND METHODS OF USING THE SAME” (The Board Of Supervisors Of Louisiana State University And …, priority 2018, published 2020)
# Assays:
# [1] = test system: planktonic S. aureus; test: MIC/MBC assay (CLSI broth dilution); assay type: cell-based; details: Staphylococcus aureus
# Protocol: The CLSI reference method for broth dilution antimicrobial susceptibility testing of bacteria was used to determine the MIC of L-161, 982 (CLSI, 2008). Based on inhibition of S. aureus in the planktonic assay, TSB was used for all antimicrobial susceptibility testing of S. aureus. Cells were diluted in sterile TSB to a final concentration of 5.0×10^5 CFU/ml and 200-μl aliquots (1×10^5 CFU/well) were added to wells of sterile round-bottom 96-well plates. A stock solution of L-161, 982 was diluted in sterile TSB prior to addition to cells. Drug concentrations tested ranged from 1 to 100 μg/ml and were tested in triplicate. The plates were incubated at 37° C. for 24 h and the OD600 measured using a microplate spectrophotometer (BioTek Instruments, Synergy 2). Bacteriostatic or bactericidal activity was assessed by plating 20 μl of broth from all wells with no visible growth on TSA plates and plates incubated at 37° C. for 24-48 h. The MBC was the lowest drug concentration that prevented growth.
# [2] = test system: C. albicans mono-species biofilm; test: biofilm formation on polystyrene (XTT, CFU); assay type: cell-based, Candida albicans; details: treated vs untreated mono-species biofilms
# Protocol: (§1) The effect of L-161,982 on biofilm formation was tested. Mono- and dual-species C. albicans and/or S. aureus biofilms were grown on 96-well plates for 24 h with the indicated concentration of L-161, 982. After incubation, metabolic activity of biofilms was quantified by the XTT assay (A) and then biofilms were disrupted to determine live colony forming units (CFU) (B). The results are cumulative of three independent experiments with duplicate samples. Statistics was performed using One-way ANOVA with the Tukey post-hoc test for the XTT assay. The Mann-Whitney U test was used to analyze CFU data. Significance is indicated as follows: ns—not significant, *P<0.05; *** P<0.001. Error bars represent standard deviation.
# (§2) Following growth as described above, microbes were washed in phosphate-buffered saline (PBS) by centrifugation, counted on a hemocytometer, and adjusted to 2×10^7 CFU/ml in RPMI buffered with MOPS (165 mM). […]
# (§3) The XTT reduction assay was used to determine the metabolic activity of biofilms following treatment with L-161, 982 (17). Briefly, wells were washed once in PBS, and plates incubated at 37° C. for 2 h with 200 μl XTT working reagent (0.5 mg/ml XTT and 1 μM Menadione) and the resulting absorbance measured at 490 nm on a microplate spectrophotometer. […]
# [3] = test system: dual-species biofilm with C. albicans; test: biofilm formation on polystyrene (XTT, CFU); assay type: cell-based, C. albicans and S. aureus
# Protocol: as §1, §2, §3
# [4] = test system: C. albicans pre-formed biofilm; test: pre-formed mature biofilm (XTT, CFU); assay type: cell-based, Candida albicans; details: all concentrations tested, 24 h treatment
# Protocol: The effect of L-161, 982 on pre-formed mature biofilms was tested. Mono- and dual-species C. albicans and/or S. aureus biofilms were grown on 96-well plates for 24 h before being treated with the indicated concentration of L-161, 982 for a further 24 h. After treatment, metabolic activity of biofilms was quantified by the XTT assay (A) and then biofilms were disrupted to determine live colony forming units (CFU) (B). The results are cumulative of three independent experiments with duplicate samples. Statistics were performed using One-way ANOVA with the Tukey post-hoc test for the XTT assay. The Mann-Whitney U test was used to analyze CFU data. Significance is indicated as follows: ns—not significant, *P<0.05; *** P<0.001. Error bars represent standard deviation.
# as §2, §3
# [5] = biological target: EP1 (Homo sapiens, UniProt P34995); details: cited from earlier work
# [6] = test system: mouse primary myoblasts; details: cited from earlier work
# Chain of EP1 (P34995 whole entry): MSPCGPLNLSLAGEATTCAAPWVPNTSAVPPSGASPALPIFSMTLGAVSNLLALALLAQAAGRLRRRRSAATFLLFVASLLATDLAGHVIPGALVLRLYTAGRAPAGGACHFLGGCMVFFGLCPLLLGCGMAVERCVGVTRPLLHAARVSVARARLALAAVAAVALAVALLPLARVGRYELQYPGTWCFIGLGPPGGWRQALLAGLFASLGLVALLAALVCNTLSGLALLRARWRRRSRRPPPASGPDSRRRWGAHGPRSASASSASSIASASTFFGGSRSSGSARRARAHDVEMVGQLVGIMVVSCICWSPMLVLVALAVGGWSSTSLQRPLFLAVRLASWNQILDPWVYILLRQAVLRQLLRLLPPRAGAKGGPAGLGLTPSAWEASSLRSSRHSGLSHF
smiles,measurement,setting,value
"CCCCc1nn(-c2ccccc2C(F)(F)F)c(=O)n1Cc1ccc(-c2ccccc2S(=O)(=O)NC(=O)c2sccc2C)cc1 [L-161, 982, N-[[4′-[[3-Butyl-1,5-dihydro-5-oxo-1-[2-(trifluoromethyl)phenyl]-4H-1,2,4-triazol-4-yl]methyl][1,1′-biphenyl]-2-yl]sulfonyl]-3-methyl-2-thiophenecarboxamide]",MBC,[1],100 µg/mL
same,MIC,"[1]; TSB, 24 h, read-out: minimum inhibitory concentration (MIC)",50 µg/mL
same,metabolic activity during biofilm formation,[2],no significant inhibition
same,inhibitory effect in dual-species biofilm,[3],no inhibitory effect
same,metabolic activity of pre-formed biofilm,[4],no significant inhibitory effects
same,Ki,[5],17 µM
same,proliferation of mouse primary myoblasts,[6],inhibit proliferation
